Consider 14 molecules from DBAASP.

Broadly, the MIC is the smallest concentration in the dilution series that meets the test's criterion for growth inhibition. High values mean weaker potency, low ones greater potency.

Common to all, as to experiment: ≥ marks a high value that may be exact or a test limit, other limits are often not marked, values filed in µg/mL are converted to µM
The test system of assay [1] is Pseudomonas aeruginosa Ps4.
Assay [2] has as its system Salmonella enterica subsp. enterica serovar Typhimurium ATCC 14028.
Assay [3] deals with Klebsiella pneumoniae ATCC 10031.
For assay [4], the system named is Escherichia coli DH5alpha.
Assay [5] has as its system Bacillus subtilis ATCC 6051.
The test system of another assay is Escherichia coli JW0013.
In assay [6] the test system is Cronobacter muytjensii ATCC 51329.
The test system of assay [7] is Staphylococcus aureus RN4220.
Assay [8] concerns Pseudomonas fluorescens NCIMB 9046.
For assay [9], the system named is Cronobacter sakazakii DPC 6440.
The subject of assay [10] is Cronobacter sakazakii ATCC BAA-894.
Assay [11] concerns Staphylococcus aureus Newman.
The subject of assay [12] is Salmonella enterica subsp. enterica serovar Typhimurium LT2.
Assay [13] has as its system Klebsiella pneumoniae NCIMB 13218.
Assay [14] concerns Pseudomonas aeruginosa ATCC 27853.
The test system of assay [15] is Staphylococcus aureus NCTC 8325-4.
In assay [16] the test system is Staphylococcus aureus SA113.
For assay [17], the system named is Escherichia coli NCIMB 11843.
Assay [18] concerns Staphylococcus aureus RF122.
The test system of assay [19] is Cronobacter sakazakii DSM 4485.

Values after ≈ are worked out from the molar mass of the structure shown.

Molecule `CC[C@H](C)[C@H](NC(=O)[C@H](CC(N)=O)NC(=O)[C@H](CCCN=C(N)N)NC(=O)[C@H](CCC(N)=O)NC(=O)[C@H](Cc1c[nH]c2ccccc12)NC(=O)[C@@H](N)CS)C(=O)N[C@@H](CCCN=C(N)N)C(=O)N[C@@H](CCCCN)C(=O)N[C@@H](CS)C(=O)N[C@@H](CCCN=C(N)N)C(N)=O` [CWQRNIRKCR] displayed an MIC in assay [1] not below 183 µM.

As to `CC(C)C[C@H](NC(=O)[C@H](CCCCN)NC(=O)[C@H](CCCCN)NC(=O)[C@H](CC(C)C)NC(=O)[C@H](CC(C)C)NC(=O)[C@H](CCCCN)NC(=O)[C@H](CC(C)C)NC(=O)[C@@H](N)Cc1ccccc1)C(=O)N[C@@H](C)C(=O)N[C@@H](C)C(=O)N[C@@H](CCCCN)C(=O)N[C@@H](CC(C)C)C(=O)N[C@@H](Cc1ccccc1)C(=O)O` [FLKLLKKLAAKLF], the MIC in assay [2] is 16.3 µM (≈ 25 µg/mL); in assay [3], 16.3 µM (≈ 25 µg/mL); in [4] it was 4.08 µM (≈ 6.25 µg/mL).

`CC[C@H](C)[C@H](NC(=O)[C@H](CCCCN)NC(=O)[C@H](CCCCN)NC(=O)[C@H](CCCCN)NC(=O)[C@@H](NC(=O)[C@H](CCCCN)NC(=O)[C@H](CCCN=C(N)N)NC(=O)[C@@H](NC(=O)[C@H](CC(N)=O)NC(=O)[C@H](CCCN=C(N)N)NC(=O)[C@H](CCC(N)=O)NC(=O)[C@H](Cc1c[nH]c2ccccc12)NC(=O)[C@@H](N)Cc1ccccc1)[C@@H](C)CC)C(C)C)C(N)=O` [FWQRNIRKVKKKI] had an MIC in assay [1] not below 143 µM.

Regarding `CC(C)[C@H](NC(=O)[C@H](CCCCN)NC(=O)[C@H](CCCN=C(N)N)NC(=O)[C@H](Cc1ccc(O)cc1)NC(=O)[C@H](CC(N)=O)NC(=O)[C@H](CCCN=C(N)N)NC(=O)[C@H](CCC(N)=O)NC(=O)[C@H](Cc1c[nH]c2ccccc12)NC(=O)[C@@H](N)Cc1ccccc1)C(=O)N[C@@H](CCCN=C(N)N)C(N)=O` [FWQRNYRKVR], in [1], the MIC was not below 172 µM.

Take `CC[C@H](C)[C@H](NC(=O)[C@H](CCCN=C(N)N)NC(=O)[C@H](Cc1c[nH]c2ccccc12)NC(=O)[C@@H](N)Cc1ccccc1)C(=O)N[C@@H](CCCN=C(N)N)C(=O)N[C@@H](CCCCN)C(=O)N[C@H](C(=O)N[C@@H](CCCN=C(N)N)C(N)=O)C(C)C` [FWRIRKVR]: the MIC in assay [1] is not below 215 µM.

In assay [1], `CC[C@H](C)[C@H](NC(=O)[C@H](CCCN=C(N)N)NC(=O)[C@H](Cc1c[nH]c2ccccc12)NC(=O)[C@@H](N)Cc1ccccc1)C(=O)N[C@@H](Cc1c[nH]c2ccccc12)C(=O)N[C@@H](CCCN=C(N)N)C(=O)N[C@@H](Cc1c[nH]c2ccccc12)C(=O)N[C@@H](CCCN=C(N)N)C(N)=O` [FWRIWRWR] returned an MIC of 23.9 µM (≈ 31.2 µg/mL).

As for `CC[C@H](C)[C@H](NC(=O)[C@@H](N)Cc1cnc[nH]1)C(=O)N[C@@H](CCC(N)=O)C(=O)N[C@@H](CCCCN)C(=O)N[C@@H](CCC(=O)O)C(=O)N[C@@H](CC(=O)O)C(=O)N[C@H](C(=O)N1CCC[C@H]1C(=O)N[C@@H](CO)C(=O)N[C@@H](CCC(=O)O)C(=O)N[C@@H](CCCN=C(N)N)C(=O)N[C@@H](Cc1ccc(O)cc1)C(=O)N[C@@H](CC(C)C)C(=O)NCC(=O)N[C@@H](Cc1ccc(O)cc1)C(=O)N[C@@H](CC(C)C)C(=O)N[C@@H](CCC(=O)O)C(=O)N[C@@H](CCC(N)=O)C(=O)N[C@@H](CC(C)C)C(=O)N[C@@H](CC(C)C)C(=O)N[C@@H](CCCN=C(N)N)C(=O)N[C@@H](CC(C)C)C(=O)N[C@@H](CCCCN)C(=O)N[C@@H](CCCCN)C(=O)O)C(C)C` [HIQKEDVPSERYLGYLEQLLRLKK], the MIC in assay [5] was not below 186 µM.

In turn, `CC[C@H](C)[C@H](NC(=O)[C@H](CCCN=C(N)N)NC(=O)[C@@H](NC(=O)[C@H](CC(N)=O)NC(=O)[C@H](CCCN=C(N)N)NC(=O)[C@H](CCC(N)=O)NC(=O)[C@H](Cc1c[nH]c2ccccc12)NC(=O)[C@@H](N)CC(C)C)[C@@H](C)CC)C(=O)N[C@@H](CCCN=C(N)N)C(=O)N[C@@H](CCCN=C(N)N)C(N)=O` [LWQRNIRIRR] showed an MIC in assay [1] not below 177 µM.

With `CC[C@H](C)[C@H](NC(=O)[C@H](CCCN=C(N)N)NC(=O)[C@@H](N)CCCN=C(N)N)C(=O)N[C@@H](CCCN=C(N)N)C(=O)N1CCC[C@H]1C(=O)N[C@@H](CCCN=C(N)N)C(=O)N1CCC[C@H]1C(=O)N1CCC[C@H]1C(=O)N[C@@H](CCCN=C(N)N)C(=O)N[C@@H](CC(C)C)C(=O)N1CCC[C@H]1C(=O)N[C@@H](CCCN=C(N)N)C(=O)N1CCC[C@H]1C(=O)N[C@@H](CCCN=C(N)N)C(=O)N1CCC[C@H]1C(=O)N[C@@H](CCCCN)C(=O)O` [RRIRPRPPRLPRPRPK], the MIC with Escherichia coli JW0013 worked out at 0.24 µM (≈ 0.492 µg/mL).

Molecule `CC(C)C[C@H](NC(=O)[C@H](CCCN=C(N)N)NC(=O)[C@@H]1CCCN1C(=O)[C@@H]1CCCN1C(=O)[C@H](CCCN=C(N)N)NC(=O)[C@@H]1CCCN1C(=O)[C@H](CCCN=C(N)N)NC(=O)[C@H](CCCCN)NC(=O)[C@H](CCCN=C(N)N)NC(=O)[C@@H](N)CCCN=C(N)N)C(=O)N1CCC[C@H]1C(=O)N[C@@H](CCCN=C(N)N)C(=O)N1CCC[C@H]1C(=O)N[C@@H](CCCN=C(N)N)C(=O)N1CCC[C@H]1C(=O)N[C@@H](CCCN=C(N)N)C(=O)O` [RRKRPRPPRLPRPRPR] returned an MIC against Escherichia coli JW0013 of 0.3 µM (≈ 0.627 µg/mL).

Turning to `CC[C@H](C)[C@H](NC(=O)[C@H](CCCN=C(N)N)NC(=O)[C@H](CCCN=C(N)N)NC(=O)[C@@H]1CCCN1C(=O)[C@@H]1CCCN1C(=O)[C@H](CCCN=C(N)N)NC(=O)[C@@H]1CCCN1C(=O)[C@H](CCCN=C(N)N)NC(=O)[C@@H]1CCCN1C(=O)[C@H](CC(C)C)NC(=O)[C@H](Cc1ccc(O)cc1)NC(=O)[C@@H]1CCCN1C(=O)[C@H](CC(N)=O)NC(=O)[C@H](CCCCN)NC(=O)[C@H](CC(=O)O)NC(=O)[C@@H](N)C(C)C)C(=O)N[C@@H](Cc1ccc(O)cc1)C(=O)N[C@@H](CC(N)=O)C(=O)N[C@@H](CCCN=C(N)N)C(N)=O` [VDKNPYLPRPRPPRRIYNR], the MIC with Escherichia coli JW0013 was 1.99 µM (≈ 4.8 µg/mL).

The molecule `CC[C@H](C)[C@H](NC(=O)[C@H](CCCN=C(N)N)NC(=O)[C@H](CCCN=C(N)N)NC(=O)[C@@H]1CCCN1C(=O)[C@@H]1CCCN1C(=O)[C@H](CCCN=C(N)N)NC(=O)[C@@H]1CCCN1C(=O)[C@H](CCCN=C(N)N)NC(=O)[C@@H]1CCCN1C(=O)[C@H](CC(C)C)NC(=O)[C@H](Cc1ccc(O)cc1)NC(=O)[C@H](CS)NC(=O)[C@@H]1CCCN1C(=O)[C@H](CCCCN)NC(=O)[C@H](CC(=O)O)NC(=O)[C@@H](N)C(C)C)C(=O)N[C@@H](Cc1ccc(O)cc1)C(=O)N[C@@H](CC(N)=O)C(=O)N[C@@H](CCCN=C(N)N)C(N)=O` [VDKPCYLPRPRPPRRIYNR] came in with an MIC against Escherichia coli JW0013 of 2 µM (≈ 4.8 µg/mL).

In the case of `CC[C@H](C)[C@H](NC(=O)[C@H](CCCN=C(N)N)NC(=O)[C@H](CCCN=C(N)N)NC(=O)[C@@H]1CCCN1C(=O)[C@@H]1CCCN1C(=O)[C@H](CCCN=C(N)N)NC(=O)[C@@H]1CCCN1C(=O)[C@H](CCCN=C(N)N)NC(=O)[C@@H]1CCCN1C(=O)[C@H](CCCN=C(N)N)NC(=O)[C@H](CCCN=C(N)N)NC(=O)[C@@H]1CCCN1C(=O)[C@H](CCCN=C(N)N)NC(=O)[C@H](CCCCN)NC(=O)[C@H](CC(=O)O)NC(=O)[C@@H](N)C(C)C)C(=O)N[C@@H](Cc1ccc(O)cc1)C(=O)N[C@@H](CC(N)=O)C(=O)N[C@@H](CCCN=C(N)N)C(N)=O` [VDKRPRRPRPRPPRRIYNR], in the assay on Escherichia coli JW0013, the MIC turned out to be 0.965 µM (≈ 2.4 µg/mL).

In the case of `CC(C)C[C@H](NC(=O)[C@H](CC(N)=O)NC(=O)[C@H](CCC(=O)O)NC(=O)[C@H](CC(N)=O)NC(=O)[C@H](CC(C)C)NC(=O)[C@@H](N)C(C)C)C(=O)N[C@@H](CCCN=C(N)N)C(=O)N[C@@H](CCCN=C(N)N)C(=O)O` [VLNENLRR], the MIC in assay [6] is not below 625 µM; in [7], not below 1250 µM; in [8] it was not below 1250 µM; in [9], not below 1250 µM; in assay [10] it was not below 1250 µM; in [11], not below 1250 µM. Moreover, the MIC in [12] was not below 2500 µM; in [13] it was not below 1250 µM; in assay [14], 32 µM (≈ 32.4 µg/mL); in assay [15] it was not below 625 µM; in assay [16], not below 1250 µM; in assay [17] it was not below 2500 µM. In addition, the MIC in assay [18] and in [19] was not below 1250 µM in each case.
